Measurements reported in patent publication US20260286573A1, “3D PRINTING ELECTROSPINNING SYSTEMS AND METHODS” (Board of Regents, The University of Texas System, priority 2023, published 2026).

Experiment: Thermogravimetric analysis (TGA), thermal stability
Type: physicochemical
Settings: for decrease in mass, initial phase of TGA (surface-absorbed water): 10 °C/min, nitrogen
Description: Thermogravimetric Analysis (TGA). FIG. 13 provides data showing thermogravimetric analysis (TGA) of raw materials and mixtures according to some examples. In some examples, the thermal properties of the raw materials and physical mixtures may be determined through a Mettler-Toledo TGA/DSC1 analyzer (Mettler-Toledo, Schwerzenbach, Switzerland). Sample raw materials and physical mixtures may be placed in an open ceramic crucible and ramped from 35° C. to 600° C. at a rate of 10° C./min. A furnace may be purged using ultra-purified nitrogen at a flow rate of 50 mL/min.
Thermogravimetric analysis (TGA) was conducted to examine the degradation patterns and thermal stabilities of EPO, S100, CUR, RTV, and Xspin bi-fibers (FIG. 13). TGA measures the change in sample mass as a function of temperature using a thermobalance.

| weight loss, second phase of TGA (between 20° and 250° C.) | second weight loss (TGA) (between 30° and 395° C.) | decrease in mass, initial phase of TGA (surface-absorbed water) | weight loss, second phase of TGA (between 245 and 420° C.) | SMILES |
| --- | --- | --- | --- | --- |
| 40% | ~ 50% | no losses |  | CC(C)c1nc(CN(C)C(=O)N[C@H](C(=O)N[C@@H](Cc2ccccc2)C[C@H](O)[C@H](Cc2ccccc2)NC(=O)OCc2cncs2)C(C)C)cs1 [RTV, Ritonavir] |
|  |  | no losses | 60% | COc1cc(/C=C/C(=O)CC(=O)/C=C/c2ccc(O)c(OC)c2)ccc1O [CUR, Curcumin] |
